Target: T1, HCMV polymerase (Human cytomegalovirus, UniProt P08546)
T1 construct: made in house; host or cells: SF-9 insect cells infected with recombinant baculovirus
Assay: HCMV polymerase assay (scintillation proximity assay)
Format: biochemical
Details: percentage of inhibition at 25 μM concentration in CMV polymerase assay
In short: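 Values are percent inhibition at 25 μM, measured by scintillation proximity after capture of biotinylated poly(dA)-oligo(dT) (6 nM) extended with 90 nM 3H-dTTP. Recombinant SF-9-derived enzyme reacted 30 min at 25 or 37 °C in HEPES pH 7.5/KCl/MgCl2/BSA buffer, ±2 mM CHAPS, before EDTA termination.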

T1 sequence (P08546 whole entry): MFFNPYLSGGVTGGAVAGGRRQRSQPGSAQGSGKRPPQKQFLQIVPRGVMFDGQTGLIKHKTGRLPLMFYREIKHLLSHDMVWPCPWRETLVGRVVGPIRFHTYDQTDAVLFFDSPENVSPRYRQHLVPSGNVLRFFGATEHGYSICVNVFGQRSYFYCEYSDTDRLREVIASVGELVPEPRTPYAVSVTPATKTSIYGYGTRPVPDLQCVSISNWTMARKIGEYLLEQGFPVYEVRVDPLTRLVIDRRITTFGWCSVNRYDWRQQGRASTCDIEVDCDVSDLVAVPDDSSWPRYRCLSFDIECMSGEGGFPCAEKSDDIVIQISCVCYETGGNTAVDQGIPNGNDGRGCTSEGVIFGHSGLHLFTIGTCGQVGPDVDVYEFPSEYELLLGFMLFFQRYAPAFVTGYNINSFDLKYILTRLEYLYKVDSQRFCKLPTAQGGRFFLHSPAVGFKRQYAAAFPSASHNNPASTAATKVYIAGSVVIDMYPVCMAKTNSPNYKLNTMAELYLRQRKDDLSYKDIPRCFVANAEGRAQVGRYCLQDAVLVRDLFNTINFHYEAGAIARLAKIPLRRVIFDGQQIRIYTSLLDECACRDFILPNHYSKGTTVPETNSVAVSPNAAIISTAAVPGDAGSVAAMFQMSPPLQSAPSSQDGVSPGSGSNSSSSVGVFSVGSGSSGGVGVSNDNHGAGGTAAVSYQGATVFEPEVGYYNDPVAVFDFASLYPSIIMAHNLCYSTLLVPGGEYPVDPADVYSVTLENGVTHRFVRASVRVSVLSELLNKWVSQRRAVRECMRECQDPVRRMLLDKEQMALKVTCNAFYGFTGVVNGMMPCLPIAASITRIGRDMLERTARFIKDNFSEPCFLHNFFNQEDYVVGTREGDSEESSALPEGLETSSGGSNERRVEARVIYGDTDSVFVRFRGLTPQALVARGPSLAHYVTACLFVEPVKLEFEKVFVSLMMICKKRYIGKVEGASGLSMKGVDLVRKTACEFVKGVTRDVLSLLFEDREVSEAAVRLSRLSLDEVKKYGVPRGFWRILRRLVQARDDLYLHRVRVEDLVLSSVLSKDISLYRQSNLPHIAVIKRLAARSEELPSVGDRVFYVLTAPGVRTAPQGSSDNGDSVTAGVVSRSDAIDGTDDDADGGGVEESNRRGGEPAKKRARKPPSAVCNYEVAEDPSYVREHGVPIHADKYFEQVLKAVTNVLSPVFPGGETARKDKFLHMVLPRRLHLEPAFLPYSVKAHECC

Structure (SMILES) | inhibition at 25 µM [%]
CCOc1ccc2ccccc2c1C(=O)Nc1nnc(NCCc2c[nH]c3ccccc23)s1 [compound 141, 2-ethoxy-N-(5-{[2-(1H-indol-3-yl)ethyl]amino}-1,3,4-thiadiazol-2-yl)-1-naphthamide] | 55.7
O=C(Nc1nnc(NCc2cccc3ccccc23)s1)c1cc2ccccc2s1 [compound 214, N-{5-[(1-naphthylmethyl)amino]-1,3,4-thiadiazol-2-yl}-1-benzothiophene-2-carboxamide] | 44.1
O=C(Nc1nnc(NCCc2cccs2)s1)c1ccc2c(c1)C(=O)OC2=O [compound 9, 1,3-dioxo-N-(5-{[2-(2-thienyl)ethyl]amino}-1,3,4-thiadiazol-2-yl)-1,3-dihydro-2-benzofuran-5-carboxamide] | 99.8
O=C(Nc1nnc(NCCSc2ccccc2)s1)c1ccc(Br)cc1 [compound 163, 4-bromo-N-(5-{[2-(phenylsulfanyl)ethyl]amino}-1,3,4-thiadiazol-2-yl)benzamide] | 51.5
O=C(Nc1nnc(NCCc2c[nH]c3ccccc23)s1)c1ccc2c(c1)C(=O)OC2=O [compound 10, N-(5-{[2-(1H-indol-3-yl)ethyl]amino}-1,3,4-thiadiazol-2-yl)-1,3-dioxo-1,3-dihydro-2-benzofuran-5-carboxamide] | 99.7
O=C(/C=C/c1ccccc1Cl)Nc1nnc(NCc2ccc3c(c2)OCO3)s1 [compound 117, (E)-N-{5-[(1,3-benzodioxol-5-ylmethyl)amino]-1,3,4-thiadiazol-2-yl}-3-(2-chlorophenyl)-2-propenamide] | 61.5
NS(=O)(=O)c1ccc(CNc2nnc(NC(=O)c3cc4ccccc4s3)s2)cc1 [compound 223, N-(5-{[4-(aminosulfonyl)benzyl]amino}-1,3,4-thiadiazol-2-yl)-1-benzothiophene-2-carboxamide] | 43.1
CCCCCCCC/C=C/CCCCCCCC(=O)Nc1nnc(NCc2ccc(S(N)(=O)=O)cc2)s1 [compound 18, (E)-N-(5-{[4-(aminosulfonyl)benzyl]amino}-1,3,4-thiadiazol-2-yl)-9-octadecenamide] | 98.3
CCCCCCCCCCCNc1nnc(NC(=O)c2ccc([N+](=O)[O-])o2)s1 [compound 60, 5-nitro-N-[5-(undecylamino)-1,3,4-thiadiazol-2-yl]-2-furamide] | 74.5
CCCCCCCCCCCNc1nnc(NC(=O)c2c(OCC)ccc3ccccc23)s1 [compound 145, 2-ethoxy-N-[5-(undecylamino)-1,3,4-thiadiazol-2-yl]-1-naphthamide] | 54.9
CCCCCCCCCCCNc1nnc(NC(=O)c2ccc(C)cc2)s1 [compound 167, 4-methyl-N-[5-(undecylamino)-1,3,4-thiadiazol-2-yl]benzamide] | 50.8
O=C(Nc1nnc(NCCc2ccccc2)s1)c1ccc2c(c1)C(=O)OC2=O [compound 24, 1,3-dioxo-N-[5-(phenethylamino)-1,3,4-thiadiazol-2-yl]-1,3-dihydro-2-benzofuran-5-carboxamide] | 95.6
COc1ccccc1C(=O)Nc1nnc(NCC(c2ccccc2)c2ccccc2)s1 [compound 224, N-{5-[(2,2-diphenylethyl)amino]-1,3,4-thiadiazol-2-yl}-2-methoxybenzamide] | 43
CCOC(=O)N1CCC(Nc2nnc(NC(=O)c3c(OCC)ccc4ccccc34)s2)CC1 [compound 86, ethyl 4-[(5-{[(2-ethoxy-1-naphthyl)carbonyl]amino}-1,3,4-thiadiazol-2-yl)amino]tetrahydro-1(2H)-pyridinecarboxylate] | 67
O=C(Nc1nnc(NCCc2ccccc2)s1)c1ccc([N+](=O)[O-])o1 [compound 282, 5-nitro-N-[5-(phenethylamino)-1,3,4-thiadiazol-2-yl]-2-furamide] | 37.1
O=C(Nc1nnc(NCCCN2CCCC2=O)s1)c1cc(F)cc(F)c1 [compound 228, 3,5-difluoro-N-(5-{[3-(2-oxo-1-pyrrolidinyl)propyl]amino}-1,3,4-thiadiazol-2-yl)benzamide] | 42.8
O=C(Nc1nnc(NCCCCc2ccccc2)s1)c1c(Cl)cccc1Cl [compound 225, 2,6-dichloro-N-{5-[(4-phenylbutyl)amino]-1,3,4-thiadiazol-2-yl}benzamide] | 42.9
O=C(Nc1nnc(NCC(c2ccccc2)c2ccccc2)s1)c1ccc(F)cc1F [compound 182, N-{5-[(2,2-diphenylethyl)amino]-1,3,4-thiadiazol-2-yl}-2,4-difluorobenzamide] | 48.2
O=C(/C=C/c1ccccc1)Nc1nnc(NCc2ccncc2)s1 [compound 94, (E)-3-phenyl-N-{5-[(4-pyridinylmethyl)amino]-1,3,4-thiadiazol-2-yl}-2-propenamide] | 65.9
O=C(Nc1nnc(NCc2ccc3c(c2)OCO3)s1)c1cc2ccccc2s1 [compound 180, N-{5-[(1,3-benzodioxol-5-ylmethyl)amino]-1,3,4-thiadiazol-2-yl}-1-benzothiophene-2-carboxamide] | 48.4

Second part, the compound after the results:

inhibition at 25 µM [%] | Structure (SMILES)
25.9 | NS(=O)(=O)c1ccc(CNc2nnc(NC(=O)c3ccc(C(F)(F)F)cc3)s2)cc1 [compound 398, N-(5-{[4-(aminosulfonyl)benzyl]amino}-1,3,4-thiadiazol-2-yl)-4-(trifluoromethyl)benzamide]
28.3 | O=C(Nc1nnc(NCCN2CCCC2)s1)c1c(Cl)cccc1Cl [compound 370, 2,6-dichloro-N-(5-{[2-(1-pyrrolidinyl)ethyl]amino}-1,3,4-thiadiazol-2-yl)benzamide]
29.4 | O=C(/C=C/c1ccccc1Cl)Nc1nnc(NCCCCc2ccccc2)s1 [compound 357, (E)-3-(2-chlorophenyl)-N-{5-[(4-phenylbutyl)amino]-1,3,4-thiadiazol-2-yl}-2-propenamide]
20.7 | Cc1ccc(C(=O)Nc2nnc(NCc3cccc4ccccc34)s2)cc1 [compound 457, 4-methyl-N-{5-[(1-naphthylmethyl)amino]-1,3,4-thiadiazol-2-yl}benzamide]
24 | O=C(/C=C/c1ccccc1)Nc1nnc(NCc2cccnc2)s1 [compound 421, (E)-3-phenyl-N-{5-[(3-pyridinylmethyl)amino]-1,3,4-thiadiazol-2-yl}-2-propenamide]
35 | O=C(Nc1nnc(NCCC(c2ccccc2)c2ccccc2)s1)c1ccc([N+](=O)[O-])o1 [compound 298, N-{5-[(3,3-diphenylpropyl)amino]-1,3,4-thiadiazol-2-yl}-5-nitro-2-furamide]
30.4 | COc1ccccc1C(=O)Nc1nnc(NCc2ccc(F)cc2)s1 [compound 348, N-{5-[(4-fluorobenzyl)amino]-1,3,4-thiadiazol-2-yl}-2-methoxybenzamide]
26.8 | COc1ccccc1C(=O)Nc1nnc(NCCCNC2CCCCC2)s1 [compound 387, N-(5-{[3-(cyclohexylamino)propyl]amino}-1,3,4-thiadiazol-2-yl)-2-methoxybenzamide]
21.8 | NS(=O)(=O)c1ccc(CCNc2nnc(NC(=O)c3ccc(C(F)(F)F)cc3)s2)cc1 [compound 446, N-(5-{[4-(aminosulfonyl)phenethyl]amino}-1,3,4-thiadiazol-2-yl)-4-(trifluoromethyl)benzamide]
22.1 | O=C(/C=C/c1ccccc1Cl)Nc1nnc(NCc2cccc3ccccc23)s1 [compound 443, (E)-3-(2-chlorophenyl)-N-{5-[(1-naphthylmethyl)amino]-1,3,4-thiadiazol-2-yl]-2propenamide]
27.8 | CCCCCCCC/C=C/CCCCCCCC(=O)Nc1nnc(NCCCn2ccnc2)s1 [compound 378, (E)-N-(5-{[3-(1H-imidazol-1-yl)propyl]amino}-1,3,4-thiadiazol-2-yl)-9-octadecenamide]
28.6 | O=C(Nc1nnc(NC2CCN(Cc3ccccc3)CC2)s1)c1ccc(I)cc1 [compound 367, N-{5-[(1-benzyl-4-piperidinyl)amino]-1,3,4-thiadiazol-2-yl}-4-iodobenzamide]
35 | O=C(Nc1nnc(NCCC(c2ccccc2)c2ccccc2)s1)c1ccc(I)cc1 [compound 297, N-{5-[(3,3-diphenylpropyl)amino]-1,3,4-thiadiazol-2-yl}-4-iodobenzamide]
20.8 | O=C(Nc1nnc(NC2CCN(Cc3ccccc3)CC2)s1)c1ccc([N+](=O)[O-])o1 [compound 456, N-{5-[(1-benzyl-4-piperidinyl)amino]-1,3,4-thiadiazol-2-yl}-5-nitro-2-furamide]
22.5 | CC(C)c1cc(C(C)C)c(C(=O)Nc2nnc(NC[C@@H]3CCC4CC3C4(C)C)s2)c(C(C)C)c1 (stereo partly drawn) [compound 440, N-[5-({[(2R)-6,6-dimethylbicyclo[3.1.1]hept-2-yl]methyl}amino)-1,3,4-thiadiazol-2-yl]-2,4,6-triisopropylbenzamide]
32.8 | O=C(CCCCCl)Nc1nnc(NCCCN2CCCC2=O)s1 [compound 325, 5-chloro-N-(5-{[3-(2-oxo-1-pyrrolidinyl)propyl]amino}-1,3,4-thiadiazol-2-yl)pentanamide]
25.5 | CC(C)c1cc(C(C)C)c(C(=O)Nc2nnc(NCc3ccc(F)cc3)s2)c(C(C)C)c1 [compound 401, N-{5-[(4-fluorobenzyl)amino]-1,3,4-thiadiazol-2-yl}-2,4,6-triisopropylbenzamide]
24.8 | O=C(Nc1nnc(NCCc2ccccc2)s1)c1cccc([N+](=O)[O-])c1 [compound 411, 3-nitro-N-[5-(phenethylamino)-1,3,4-thiadiazol-2-yl]benzamide]
35.4 | O=C(/C=C/c1ccccc1Cl)Nc1nnc(NCCNc2ccccc2)s1 [compound 294, (E)-N-{5-[(2-anilinoethyl)amino]-1,3,4-thiadiazol-2-yl}-3-(2-chlorophenyl)-2-propenamide]
